Values of other authors in PubChem BioAssay AID1259409 (Chemical Carcinogenesis Research Information System (CCRIS), 2018).

Tested on: rodent chemically induced tumor inhibition, incidence and multiplicity
Experiment: CCRIS tumor inhibitor studies
Conditions: Route [Inhibitor]: ORAL

Cc1c(C)c2c(c(C)c1O)CC[C@@](C)(CCC[C@H](C)CCC[C@H](C)CCCC(C)C)O2
tumour outcome (control, treated, inhibition, significance) (Carcinogen: 3,2-DIMETHYL-4-AMINOBIPHENYL, 13394-86-0, Dose [Inhibitor]: 0, 1% IN BASAL DIET BEGINNING POST CARCINOGEN TREATMENT AND CONTINUING FOR 40 WK (STUDY DURATION: 60 WK), Species: RAT, Strain/Sex: F344/MALE, Target Tissue: Type of Lesion: PANCREAS: ACINAR CELL NODULE, Dose [Carcinogen]: 50 MG/KG 1/2 WK FOR 20 WK TO RATS MAINTAINED ON ETHINYL ESTRADIOL CONTAINING DIET (0.75 PPM) FOR 1 WK CYCLED WITH ETHINY, Promoter: ETHINYL ESTRADIOL, 57-63-6): 4/10 (40%), 5/12 (42%), -5%, not significant
tumour outcome (control, treated, inhibition, significance) (Carcinogen: 3,2-DIMETHYL-4-AMINOBIPHENYL, 13394-86-0, Dose [Inhibitor]: 0, 1% IN BASAL DIET BEGINNING POST CARCINOGEN TREATMENT AND CONTINUING FOR 40 WK (STUDY DURATION: 60 WK), Species: RAT, Strain/Sex: F344/MALE, Target Tissue: Type of Lesion: PROSTATE: CARCINOMA, Dose [Carcinogen]: 50 MG/KG 1/2 WK FOR 20 WK TO RATS MAINTAINED ON ETHINYL ESTRADIOL CONTAINING DIET (0.75 PPM) FOR 1 WK CYCLED WITH ETHINY, Promoter: ETHINYL ESTRADIOL, 57-63-6): 5/10 (50%), 6/12 (50%), 0%, not significant
tumour outcome (control, treated, inhibition, significance) (Carcinogen: 4-NITROQUINOLINE 1-OXIDE, 56-57-5, Dose [Inhibitor]: 25.5, 550.9 MG/KG IN DIET FOR DURATION OF STUDY (STUDY DURATION: 23 WK), Species: MOUSE, Strain/Sex: DDY/MALE, Target Tissue: Type of Lesion: LUNG: TUMOR, Dose [Carcinogen]: 10 MG/KG BW SUSPENDED IN OLIVE OIL AND CHOLESTEROL (20:1, W/W) ONCE, Promoter: NONE USED): 6/11 (55%), 4/11 (36%), 36%, not significant
tumour outcome (control, treated, inhibition, significance) (Carcinogen: 4-NITROQUINOLINE 1-OXIDE, 56-57-5, Dose [Inhibitor]: EXCESSIVE VITAMIN E (DOSE NOT STATED) IN THE DIET FOR 4 WK POST CARCINOGEN DOSE (STUDY DURATION: 23 WK), Species: MOUSE, Strain/Sex: DDY/MALE, Target Tissue: Type of Lesion: LUNG: TUMOR, Dose [Carcinogen]: 10 MG/KG BW ONCE, Promoter: GLYCEROL, 56-81-5): 9/11 (82%), 5/11 (45%), 45%, not calculated
tumour outcome (control, treated, inhibition, significance) (Carcinogen: 4-NITROQUINOLINE 1-OXIDE, 56-57-5, Dose [Inhibitor]: EXCESSIVE VITAMIN E (DOSE NOT STATED) IN THE DIET FOR 23 WK POST CARCINOGEN DOSE (STUDY DURATION: 23 WK), Species: MOUSE, Strain/Sex: DDY/MALE, Target Tissue: Type of Lesion: LUNG: TUMOR, Dose [Carcinogen]: 10 MG/KG BW ONCE, Promoter: GLYCEROL, 56-81-5): 9/11 (82%), 2/9 (22%), 73%, not calculated
tumour outcome (control, treated, inhibition, significance) (Carcinogen: 7,12-DIMETHYLBENZ[A]ANTHRACENE, 57-97-6, Dose [Inhibitor]: 0, 3.349 UMOL/G IN DIET FOR DURATION OF STUDY (STUDY DURATION: 18 WK), Species: RAT, Strain/Sex: SPRAGUE-DAWLEY/FEMALE, Target Tissue: Type of Lesion: MAMMARY GLAND: TUMOR, Dose [Carcinogen]: 50 MG/KG IN SESAME OIL ONCE, Promoter: NONE USED): 88%, 79%, 10%, not significant
tumour outcome (control, treated, inhibition, significance) (Carcinogen: 7,12-DIMETHYLBENZ[A]ANTHRACENE, 57-97-6, Dose [Inhibitor]: 0.2% IN DIET FROM WEANING ONWARD (STUDY DURATION: 6 MO AFTER CARCINOGEN ADMINISTRATION), Species: RAT, Strain/Sex: SPRAGUE-DAWLEY/FEMALE, Target Tissue: Type of Lesion: MAMMARY GLAND: TUMOR, Dose [Carcinogen]: 10 MG/RAT IN 1 ML STRIPPED CORN OIL SINGLE DOSE ON D 50 FOLLOWING 24 HR FASTING PERIOD, Promoter: NONE USED): 70%, 70%, 0%, not calculated
tumour outcome (control, treated, inhibition, significance) (Carcinogen: 7,12-DIMETHYLBENZ[A]ANTHRACENE, 57-97-6, Dose [Inhibitor]: 0.2% IN DIET FROM WEANING ONWARD (STUDY DURATION: 6 MO AFTER CARCINOGEN ADMINISTRATION), Species: RAT, Strain/Sex: SPRAGUE-DAWLEY/FEMALE, Target Tissue: Type of Lesion: MAMMARY GLAND: TUMOR, Dose [Carcinogen]: 10 MG/RAT IN 1 ML STRIPPED CORN OIL, SINGLE DOSE ON D 5 FOLLOWING 24 HR FASTING PERIOD, Promoter: NONE USED): 40%, 37%, 8%, not calculated
tumour outcome (control, treated, inhibition, significance) (Carcinogen: 7,12-DIMETHYLBENZ[A]ANTHRACENE, 57-97-6, Dose [Inhibitor]: 0.2% IN DIET FROM WEANING ONWARD (STUDY DURATION: 6 MO AFTER CARCINOGEN ADMINISTRATION), Species: RAT, Strain/Sex: SPRAGUE-DAWLEY/FEMALE, Target Tissue: Type of Lesion: MAMMARY GLAND: TUMOR, Dose [Carcinogen]: 10 MG/RAT IN 1 ML STRIPPED CORN OIL, SINGLE DOSE ON D 50 FOLLOWING 24 HR FASTING PERIOD, Promoter: NONE USED): 100%, 100%, 0%, not calculated
tumour outcome (control, treated, inhibition, significance) (Carcinogen: 7,12-DIMETHYLBENZ[A]ANTHRACENE, 57-97-6, Dose [Inhibitor]: 0.2% IN DIET, UNSATURATED FAT THROUGHOUT THE EXPERIMENT, (STUDY DURATION: 32 WK), Species: RAT, Strain/Sex: SPRAGUE-DAWLEY/FEMALE, Target Tissue: Type of Lesion: MAMMARY GLAND: PARENCHYMAL CARCINOMA, Dose [Carcinogen]: 10 MG IN 1 ML CORN OIL AT 50 D OF AGE CELL ONCE, Promoter: NONE USED): 100%, 100%, 0%, not calculated
tumour outcome (control, treated, inhibition, significance) (Carcinogen: 7,12-DIMETHYLBENZ[A]ANTHRACENE, 57-97-6, Dose [Inhibitor]: 0.2% IN HIGH POLYUNSATURATED FAT DIET DAILY STARTING 29 D BEFORE CARCINOGEN TREATMENT AND CONTINUING FOR DURATION OF STU, Species: RAT, Strain/Sex: SPRAGUE-DAWLEY/FEMALE, Target Tissue: Type of Lesion: MAMMARY GLAND: ADENOCARCINOMA, Dose [Carcinogen]: 10 MG IN 1 ML STRIPPED CORN OIL ONCE AT 50 D OF AGE, Promoter: NONE USED): 100%, 100%, 0%, not calculated
